Data taken from PMC4648113 (Acta Pharmacologica Sinica, 2015).
Several values for one entry are separate records, joined by “and”; a condition that tells them apart may be missing. Identical values can stand only once. Entries after “also recorded” stand apart in the source; their conditions may differ.

Key:
human α7 nAChR [1] = biological target: T1, human α7 nAChR (Homo sapiens, UniProt P36544); assay: Two-electrode voltage clamp; assay type: cell-based; details: for Concentration needed to reach 30% of the response of ACh: oocyte assay; for Maximal response vs 3 mmol/L ACh: peak current normalized to 3 mmol/L ACh
[2] = biological target: native α7 nAChR in hippocampal neurons (Rattus norvegicus, UniProt Q05941); assay type: cell-based
[3] = system: ERK1/2 phosphorylation in PC12 cells; assay: Western blot of ERK1/2 phosphorylation in PC12 cells; assay type: cell-based, rat; details: pre-incubation 10 min
[4] = system: CA1 hippocampal pyramidal neurons; assay: Spontaneous IPSC recordings in hippocampal brain slices; assay type: cell-based, rat
α7 nAChR [5] = biological target: T2, α7 nAChR (Rattus norvegicus, UniProt Q05941); details: Ki ratio vs ACh
[6] = biological target: human α2β3γ2 GABAA receptor (Homo sapiens, UniProt P18507+P28472+P47869); assay: TEVC in Xenopus oocytes, GABAA α2β3γ2; assay type: cell-based
[7] = biological target: human α5β3γ2 GABAA receptor (Homo sapiens, UniProt P18507+P28472+P31644); assay: TEVC in Xenopus oocytes, GABAA α5β3γ2; assay type: cell-based
human α7 nAChR [8] = biological target: T1, human α7 nAChR; assay: TEVC, inhibition; assay type: cell-based
α7 nAChR [9] = biological target: T2, α7 nAChR; assay: biochemical
[10] = biological target: human α3β3γ2 GABAA receptor (Homo sapiens, UniProt P18507+P28472+P34903); assay: TEVC in Xenopus oocytes, GABAA α3β3γ2; assay type: cell-based
rat α4β2 nAChR = rat α4β2 nAChR (Rattus norvegicus, UniProt P09483+P12390); assay: TEVC in Xenopus oocytes, selectivity on α4β2; assay type: cell-based
[11] = biological target: human α1β3γ2 GABAA receptor (Homo sapiens, UniProt P14867+P18507+P28472); assay: TEVC in Xenopus oocytes, GABAA α1β3γ2; assay type: cell-based
rat α3β4 nAChR = rat α3β4 nAChR (Rattus norvegicus, UniProt P04757+P12392); assay: TEVC in Xenopus oocytes, selectivity on α3β4; assay type: cell-based
human 5-HT3A receptor = biological target: T3, human 5-HT3A receptor (Homo sapiens, UniProt P46098); assay: TEVC in Xenopus oocytes, selectivity on 5-HT3A; assay type: cell-based
T3 sequence (P46098 24-478): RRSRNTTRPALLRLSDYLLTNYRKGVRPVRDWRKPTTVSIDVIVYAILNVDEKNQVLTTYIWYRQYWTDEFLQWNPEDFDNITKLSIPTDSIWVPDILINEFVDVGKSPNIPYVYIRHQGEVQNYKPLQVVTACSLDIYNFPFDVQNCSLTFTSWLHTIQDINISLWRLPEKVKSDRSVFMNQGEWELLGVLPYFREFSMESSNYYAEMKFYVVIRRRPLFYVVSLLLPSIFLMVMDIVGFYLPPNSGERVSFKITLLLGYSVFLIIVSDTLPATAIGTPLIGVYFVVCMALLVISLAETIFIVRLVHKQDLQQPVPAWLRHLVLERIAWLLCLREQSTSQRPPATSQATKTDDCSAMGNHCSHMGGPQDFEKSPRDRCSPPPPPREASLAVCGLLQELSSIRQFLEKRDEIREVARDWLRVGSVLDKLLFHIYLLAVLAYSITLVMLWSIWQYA

[12] = 100 μmol/L co-applied with 1 μmol/L GABA
[13] = 100 μmol/L, pre-incubation 1 min
[14] = Br-IQ17B alone, up to 100 μmol/L

Sequence of rat α3β4 nAChR (P04757 26-499): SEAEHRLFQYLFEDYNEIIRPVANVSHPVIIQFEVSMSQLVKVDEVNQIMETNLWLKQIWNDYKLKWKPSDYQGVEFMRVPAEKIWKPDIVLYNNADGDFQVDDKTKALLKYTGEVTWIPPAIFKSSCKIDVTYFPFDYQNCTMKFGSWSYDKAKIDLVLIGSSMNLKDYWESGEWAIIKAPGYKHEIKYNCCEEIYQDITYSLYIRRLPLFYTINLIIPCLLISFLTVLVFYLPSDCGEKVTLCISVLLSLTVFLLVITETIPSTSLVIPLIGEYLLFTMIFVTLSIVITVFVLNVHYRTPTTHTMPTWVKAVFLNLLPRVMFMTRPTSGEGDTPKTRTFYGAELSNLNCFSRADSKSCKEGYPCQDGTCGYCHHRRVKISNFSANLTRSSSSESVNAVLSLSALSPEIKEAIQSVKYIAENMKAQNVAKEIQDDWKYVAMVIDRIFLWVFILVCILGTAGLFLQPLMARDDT
Sequence of rat α3β4 nAChR (P12392 21-495): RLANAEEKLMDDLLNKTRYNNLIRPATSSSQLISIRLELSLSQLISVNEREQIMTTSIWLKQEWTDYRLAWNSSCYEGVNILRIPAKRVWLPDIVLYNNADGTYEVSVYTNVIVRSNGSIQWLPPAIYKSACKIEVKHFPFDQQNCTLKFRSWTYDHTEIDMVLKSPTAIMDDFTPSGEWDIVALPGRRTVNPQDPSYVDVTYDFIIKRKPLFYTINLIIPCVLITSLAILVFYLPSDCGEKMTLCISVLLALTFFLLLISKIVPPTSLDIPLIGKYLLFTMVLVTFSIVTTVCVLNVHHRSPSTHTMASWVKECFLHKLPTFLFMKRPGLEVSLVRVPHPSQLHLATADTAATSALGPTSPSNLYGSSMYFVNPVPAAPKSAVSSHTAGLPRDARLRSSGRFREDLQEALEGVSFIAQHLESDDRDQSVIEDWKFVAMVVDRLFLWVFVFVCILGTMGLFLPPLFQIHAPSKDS
Sequence of rat α4β2 nAChR (P09483 31-630): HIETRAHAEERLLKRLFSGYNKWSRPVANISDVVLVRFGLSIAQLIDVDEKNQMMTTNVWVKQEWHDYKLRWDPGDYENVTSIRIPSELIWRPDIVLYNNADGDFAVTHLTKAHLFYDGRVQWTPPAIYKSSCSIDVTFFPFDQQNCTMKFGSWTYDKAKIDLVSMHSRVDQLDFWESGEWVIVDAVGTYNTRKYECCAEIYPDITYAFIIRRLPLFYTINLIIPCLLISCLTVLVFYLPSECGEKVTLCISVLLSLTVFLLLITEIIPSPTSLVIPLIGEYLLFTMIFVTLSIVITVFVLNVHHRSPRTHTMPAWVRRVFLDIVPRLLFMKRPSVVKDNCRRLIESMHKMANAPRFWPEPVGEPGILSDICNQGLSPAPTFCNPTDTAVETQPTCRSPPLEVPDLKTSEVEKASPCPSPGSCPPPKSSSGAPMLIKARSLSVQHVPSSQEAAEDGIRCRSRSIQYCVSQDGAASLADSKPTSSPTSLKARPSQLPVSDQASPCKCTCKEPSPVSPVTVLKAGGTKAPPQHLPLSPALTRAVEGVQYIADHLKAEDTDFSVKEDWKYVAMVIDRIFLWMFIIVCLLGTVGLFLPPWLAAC
Sequence of rat α4β2 nAChR (P12390 25-500): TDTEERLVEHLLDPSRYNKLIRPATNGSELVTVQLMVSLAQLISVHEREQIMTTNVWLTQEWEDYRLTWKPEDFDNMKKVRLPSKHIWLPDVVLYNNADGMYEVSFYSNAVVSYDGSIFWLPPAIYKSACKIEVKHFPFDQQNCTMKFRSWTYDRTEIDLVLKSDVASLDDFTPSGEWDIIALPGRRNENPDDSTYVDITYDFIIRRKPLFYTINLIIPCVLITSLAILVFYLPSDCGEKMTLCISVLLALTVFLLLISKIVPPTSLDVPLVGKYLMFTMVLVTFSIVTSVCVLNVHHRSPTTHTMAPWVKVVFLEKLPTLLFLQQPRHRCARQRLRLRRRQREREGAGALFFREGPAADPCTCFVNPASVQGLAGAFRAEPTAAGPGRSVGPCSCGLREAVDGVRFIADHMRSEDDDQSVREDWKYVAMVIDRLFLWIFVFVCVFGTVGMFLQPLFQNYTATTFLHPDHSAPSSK
Sequence of native α7 nAChR in hippocampal neurons (Q05941 23-502): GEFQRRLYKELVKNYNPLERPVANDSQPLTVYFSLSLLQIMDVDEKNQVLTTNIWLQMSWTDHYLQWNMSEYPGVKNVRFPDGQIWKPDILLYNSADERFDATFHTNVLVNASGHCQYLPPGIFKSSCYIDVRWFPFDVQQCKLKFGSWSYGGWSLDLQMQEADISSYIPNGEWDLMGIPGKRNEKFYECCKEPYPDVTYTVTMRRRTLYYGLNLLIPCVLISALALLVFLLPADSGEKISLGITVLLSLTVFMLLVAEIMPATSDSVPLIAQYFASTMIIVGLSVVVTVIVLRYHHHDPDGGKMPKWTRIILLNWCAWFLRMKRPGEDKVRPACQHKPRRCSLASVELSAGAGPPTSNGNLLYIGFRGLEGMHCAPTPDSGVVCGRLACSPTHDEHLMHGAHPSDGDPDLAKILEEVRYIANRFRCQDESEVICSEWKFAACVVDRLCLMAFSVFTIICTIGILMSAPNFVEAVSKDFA
T1 sequence (P36544 23-502): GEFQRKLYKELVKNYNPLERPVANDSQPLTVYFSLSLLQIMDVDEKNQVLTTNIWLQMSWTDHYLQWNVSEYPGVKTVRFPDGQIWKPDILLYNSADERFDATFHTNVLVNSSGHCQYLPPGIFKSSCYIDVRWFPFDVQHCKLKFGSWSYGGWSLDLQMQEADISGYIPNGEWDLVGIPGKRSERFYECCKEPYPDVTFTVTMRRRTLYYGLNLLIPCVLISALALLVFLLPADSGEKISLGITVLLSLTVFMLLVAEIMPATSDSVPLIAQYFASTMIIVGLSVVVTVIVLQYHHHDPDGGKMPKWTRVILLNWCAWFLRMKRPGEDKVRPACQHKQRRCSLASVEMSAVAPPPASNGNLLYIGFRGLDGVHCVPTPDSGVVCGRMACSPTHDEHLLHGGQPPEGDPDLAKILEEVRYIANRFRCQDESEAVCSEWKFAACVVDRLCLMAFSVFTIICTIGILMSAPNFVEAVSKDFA
Sequence of human α1β3γ2 GABAA receptor (P14867 28-456): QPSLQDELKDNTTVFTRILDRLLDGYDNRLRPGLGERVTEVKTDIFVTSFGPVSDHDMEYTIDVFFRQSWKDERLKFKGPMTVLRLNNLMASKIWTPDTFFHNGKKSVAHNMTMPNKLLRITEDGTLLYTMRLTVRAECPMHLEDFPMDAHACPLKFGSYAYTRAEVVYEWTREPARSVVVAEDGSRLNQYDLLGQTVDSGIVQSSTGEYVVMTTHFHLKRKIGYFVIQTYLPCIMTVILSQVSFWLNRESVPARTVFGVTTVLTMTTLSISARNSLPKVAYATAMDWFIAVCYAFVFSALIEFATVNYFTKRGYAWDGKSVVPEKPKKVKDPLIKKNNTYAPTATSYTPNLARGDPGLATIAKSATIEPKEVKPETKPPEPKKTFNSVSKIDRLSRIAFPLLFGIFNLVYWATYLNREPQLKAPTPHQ
Sequence of human α1β3γ2 GABAA receptor (P28472 26-473): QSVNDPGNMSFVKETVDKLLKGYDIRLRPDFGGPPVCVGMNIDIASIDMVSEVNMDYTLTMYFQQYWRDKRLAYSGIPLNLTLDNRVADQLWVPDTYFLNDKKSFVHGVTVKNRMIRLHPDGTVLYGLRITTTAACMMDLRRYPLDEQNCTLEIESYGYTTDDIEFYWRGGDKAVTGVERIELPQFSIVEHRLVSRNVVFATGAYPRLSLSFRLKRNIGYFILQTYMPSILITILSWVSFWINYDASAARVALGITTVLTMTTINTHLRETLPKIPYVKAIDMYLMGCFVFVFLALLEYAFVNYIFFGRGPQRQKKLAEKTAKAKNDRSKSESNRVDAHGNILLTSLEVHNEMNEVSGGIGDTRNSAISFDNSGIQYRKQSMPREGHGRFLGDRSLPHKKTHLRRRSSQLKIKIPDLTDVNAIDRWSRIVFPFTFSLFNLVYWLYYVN
Sequence of human α1β3γ2 GABAA receptor (P18507 40-475): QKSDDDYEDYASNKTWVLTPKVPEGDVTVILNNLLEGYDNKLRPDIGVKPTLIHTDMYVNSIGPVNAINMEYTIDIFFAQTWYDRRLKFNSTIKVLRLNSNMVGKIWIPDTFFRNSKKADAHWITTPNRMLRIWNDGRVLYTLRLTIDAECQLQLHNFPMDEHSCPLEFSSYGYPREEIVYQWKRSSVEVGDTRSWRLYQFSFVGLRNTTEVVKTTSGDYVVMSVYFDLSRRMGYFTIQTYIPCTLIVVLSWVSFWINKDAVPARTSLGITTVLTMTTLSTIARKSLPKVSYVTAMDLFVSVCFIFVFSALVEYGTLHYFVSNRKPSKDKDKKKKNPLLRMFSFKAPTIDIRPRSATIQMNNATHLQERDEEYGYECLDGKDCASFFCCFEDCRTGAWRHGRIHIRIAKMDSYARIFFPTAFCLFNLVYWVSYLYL
T2 sequence (Q05941 23-502): as the sequence (Q05941 23-502) above
Sequence of human α5β3γ2 GABAA receptor (P31644 32-462): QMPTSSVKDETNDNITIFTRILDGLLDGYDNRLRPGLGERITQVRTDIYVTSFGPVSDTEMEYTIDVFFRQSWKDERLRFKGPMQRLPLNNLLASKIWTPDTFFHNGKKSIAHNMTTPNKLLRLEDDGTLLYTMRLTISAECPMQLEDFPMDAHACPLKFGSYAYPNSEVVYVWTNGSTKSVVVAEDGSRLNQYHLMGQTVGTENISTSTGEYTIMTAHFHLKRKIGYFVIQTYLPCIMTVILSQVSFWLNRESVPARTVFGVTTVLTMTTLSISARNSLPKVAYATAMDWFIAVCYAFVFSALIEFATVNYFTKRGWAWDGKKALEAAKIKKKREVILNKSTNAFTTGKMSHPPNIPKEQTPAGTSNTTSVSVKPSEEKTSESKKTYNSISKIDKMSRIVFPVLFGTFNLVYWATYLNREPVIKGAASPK
Sequence of human α5β3γ2 GABAA receptor (P28472 26-473): as the sequence (P28472 26-473) above
Sequence of human α5β3γ2 GABAA receptor (P18507 40-475): as the sequence (P18507 40-475) above

O=C(N[C@H]1CN2CCC1CC2)c1cc2cccc(Cl)c2s1 [EVP-6124]
EC50 (human α7 nAChR [1]): 0.45 ± 0.08 µM
Concentration needed to reach 30% of the response of ACh (human α7 nAChR [1]): 3 µmol/L
Maximal response vs 3 mmol/L ACh (human α7 nAChR [1]): 30.6%±1.8%

COc1cc(OC)c(NC(=O)Nc2cc(C)on2)cc1Cl [PNU-120596]
Effect of PNU-120596 on current activated by Br-IQ17B [2]: significantly enhanced
Effect of PNU-120596 on current evoked by low concentration of ACh ([2]; PNU-120596 1 μmol/L, ACh 10 μmol/L): robustly increased
Effect of PNU-120596 alone on basal pERK/tERK ratio [3]: slight increase
sIPSC frequency with PNU-120596 alone ([4]; PNU-120596 1 μmol/L, 10 min, baseline 4.5±0.7 Hz): 4.6±0.7 Hz
sIPSC amplitude with PNU-120596 alone ([4]; PNU-120596 1 μmol/L, 10 min, baseline 30.8±6.8 pA): 30.6±4.7 pA

CCN1C[C@]2(COC(=O)c3ccccc3N3C(=O)C[C@H](C)C3=O)CC[C@H](OC)[C@@]34[C@@H]5C[C@H]6[C@H](OC)[C@@H]5[C@](O)(C[C@@H]6OC)[C@@](O)([C@@H](OC)[C@H]23)[C@@H]14 [MLA, methyllycaconitine]
Effect of MLA on Br-IQ17B-evoked native α7 current [2]: completely blocked
Effect of MLA on α7 current evoked by Br-IQ17B (human α7 nAChR [1]; 10 nmol/L MLA, 30 μmol/L Br-IQ17B): inhibited; also recorded: completely blocked

CC(=O)OCC[N+](C)(C)C [ACh, acetylcholine]
Current evoked in hippocampal neurons [2]: evoked α7 currents with fast onset and rapid decay

O=C(N[C@H]1CN2CCC1CC2)c1cc2cccc(Br)n2c1 [Br-IQ17B, N-[(3R)-1-azabicyclo[2,2,2]oct-3-yl]-5-bromoindolizine-2-carboxamide]
Fold more potent than ACh in [3H]-MLA displacement (α7 nAChR [5]): approximately 300 fold
Allosteric modulation of GABAA α2β3γ2 [6, 12]: no allosteric modulation
Effect on GABAA α2β3γ2 [6, 13]: no observable effects
Allosteric modulation of GABAA α5β3γ2 [7, 12]: no allosteric modulation
Effect on GABAA α5β3γ2 [7, 13]: no observable effects
IC50 (human α7 nAChR [8]): 0.0285 ± 0.0025 µM
Effect of low concentration on ACh-mediated peak current (human α7 nAChR [8]; 3 nmol/L Br-IQ17B, 100 μmol/L ACh): increased the ACh-mediated peak current
Hill coefficient, inhibition of ACh-evoked α7 current (human α7 nAChR [8]; 1-min sustained exposure, then 100 μmol/L ACh): 2.8±0.3
Ki (α7 nAChR [9]): 0.0149 ± 0.0032 µM
Allosteric modulation of GABAA α3β3γ2 [10, 12]: no allosteric modulation
Effect on GABAA α3β3γ2 [10, 13]: no observable effects
Current evoked in hippocampal neurons [2]: evoked α7 currents with fast onset and rapid decay
Hill coefficient in the presence of PNU-120596 (human α7 nAChR [1]; co-applied with 1 μmol/L PNU-120596): 2.4±0.1
Hill coefficient, activation of α7 current (human α7 nAChR [1]; compound alone): 1.2±0.1
Concentration needed to reach 30% of the response of ACh (human α7 nAChR [1]): 1.5 µmol/L
Maximal response vs 3 mmol/L ACh (human α7 nAChR [1]): 64.3%±3.6%
EC50 (rat α4β2 nAChR): > 100 µM
IC50 (rat α4β2 nAChR): > 100 µM
Agonist activity on α4β2 (rat α4β2 nAChR; [14]): did not induce any current; also recorded: no detectable agonist activity
Effect on ACh-evoked α4β2 current (rat α4β2 nAChR; pre-incubation 1 min or co-application with ACh): no enhancement or inhibition
Maximum effect vs 3 mmol/L ACh or 10 μmol/L 5-HT (rat α4β2 nAChR; α4β2, Rat): 0
Allosteric modulation of GABAA α1β3γ2 [11, 12]: no allosteric modulation
Effect on GABAA α1β3γ2 [11, 13]: no observable effects
sIPSC frequency with co-application of PNU-120596 and Br-IQ17B ([4]; Br-IQ17B 10 μmol/L + PNU-120596 1 μmol/L, 1–5 min, from 4.6±0.7 Hz): 7.8±0.7 Hz
Increase of IPSC peak amplitudes of individual neurons ([4]; Br-IQ17B 10 μmol/L + PNU-120596 1 μmol/L, 5 out of 6 neurons, vs control or PNU120596 alone): 1.3 to 4.9 times
IPSC amplitude in the one neuron out of six without amplitude change ([4]; co-application of Br-IQ17B and PNU-120596, vs 25.3±1.4 pA): 25.9±1.2 pA
EC50 (rat α3β4 nAChR): > 100 µM
Agonist activity on α3β4 (rat α3β4 nAChR; [14]): did not induce any current; also recorded: no detectable agonist activity
IC50 (rat α3β4 nAChR; IC50, inhibition of ACh-evoked α3β4 current, co-applied with 300 μmol/L ACh): ~382 µM and 382 µM and ~381 µM
Hill coefficient, inhibition of α3β4 (rat α3β4 nAChR; co-applied with 300 μmol/L ACh): 0.9±0.1
Maximum effect vs 3 mmol/L ACh or 10 μmol/L 5-HT (rat α3β4 nAChR; α3β4, Rat): 0
EC50 (human 5-HT3A receptor): > 100 µM
Maximum effect vs 3 mmol/L ACh or 10 μmol/L 5-HT (human 5-HT3A receptor; 5-HT3A, Human): 0
Agonist activity on 5-HT3A (human 5-HT3A receptor; Br-IQ17B alone, 0.1–100 μmol/L): did not show any agonist activities
Hill coefficient, inhibition of 5-HT3A (human 5-HT3A receptor; co-applied with 10 μmol/L 5-HT): 2.1±0.1
